Source: ChEMBL document CHEMBL5608181, “Discovery of indazole inhibitors for heat shock protein 90 as anti-cancer agents” (Eur J Med Chem, 2024)
Calls of active or inactive are those of the source. The calls are words filed in the database; no cut-off is given here.

Tests used:
JIMT-1 = experiment: Antiproliferative activity against human JIMT-1 cells assessed as inhibition of cell viability at 10 uM measured after 72 hrs by CellTiter 96 Aqueous One Solution Cell Proliferation Assay; assay type: functional, cell-based
HEK293 = experiment: Cytotoxicity against HEK293 cells assessed as reduction in cell viability at 10 uM measured after 72 hrs by CellTiter 96 Aqueous One Solution Cell Proliferation Assay; assay type: toxicity, cell-based; conditions: human, hek293, 72 h
BT-474 = experiment: Antiproliferative activity against human BT-474 cells assessed as inhibition of cell viability at 10 uM measured after 72 hrs by CellTiter 96 Aqueous One Solution Cell Proliferation Assay; assay type: functional, cell-based

## COCCn1cc(NC(=O)c2ccc3c(c2OC)C=CC(C)(C)O3)c2cncnc21
JIMT-1
  Activity: Active
HEK293
  Activity: Toxic
BT-474
  Activity: Active
